Results as given in ChEMBL document CHEMBL1909046, “DrugMatrix in vitro pharmacology data”.

Columns and labels:
[1] = target: T1, Leukotriene C4 synthase (Cavia porcellus, UniProt A6XA80); type: tissue-based, Lung;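 further: enzyme inhibition assay of leukotriene C4 synthase, using LTA4 as the substrate; in other assays of this panel Not Active means under 50% inhibition at 10 µM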
T1 sequence (A6XA80 whole entry): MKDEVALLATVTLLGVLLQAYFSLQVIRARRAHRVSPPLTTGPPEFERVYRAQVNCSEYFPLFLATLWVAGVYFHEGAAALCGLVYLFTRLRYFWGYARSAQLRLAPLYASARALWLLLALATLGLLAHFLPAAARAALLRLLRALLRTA

[2] = target: Acetylcholinesterase (Homo sapiens, UniProt P22303); assay: DRUGMATRIX: Acetylcholinesterase enzyme inhibition (substrate: acetylthiocholine); type: cell-based, HEK293; settings: Not Active = under 50% inhibition at 10 µM
Chain of Acetylcholinesterase (P22303 whole entry): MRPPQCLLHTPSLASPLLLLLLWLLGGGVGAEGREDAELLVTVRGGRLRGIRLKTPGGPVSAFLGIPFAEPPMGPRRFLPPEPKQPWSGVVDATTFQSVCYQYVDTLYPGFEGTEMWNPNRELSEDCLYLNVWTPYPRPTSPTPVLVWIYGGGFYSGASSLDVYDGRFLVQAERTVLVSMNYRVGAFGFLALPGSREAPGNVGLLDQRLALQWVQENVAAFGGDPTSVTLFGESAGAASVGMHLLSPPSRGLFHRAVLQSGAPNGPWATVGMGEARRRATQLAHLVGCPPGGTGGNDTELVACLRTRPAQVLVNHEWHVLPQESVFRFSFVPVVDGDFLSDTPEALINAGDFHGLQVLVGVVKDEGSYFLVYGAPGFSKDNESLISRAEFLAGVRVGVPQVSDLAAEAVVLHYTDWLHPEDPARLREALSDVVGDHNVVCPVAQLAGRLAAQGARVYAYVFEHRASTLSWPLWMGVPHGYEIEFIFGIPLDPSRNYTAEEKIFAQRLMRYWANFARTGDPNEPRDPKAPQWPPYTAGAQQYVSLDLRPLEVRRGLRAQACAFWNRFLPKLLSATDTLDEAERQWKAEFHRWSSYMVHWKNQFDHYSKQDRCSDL

[3] = DRUGMATRIX: Atrial Natriuretic Factor (ANF) radioligand binding (ligand: [125I] ANF (rat)); type: cell membranes, Cavia porcellus, Dunkin-Hartley, Adrenal gland, Membrane; settings: Not Active = under 50% inhibition at 10 µM
[4] = target: T2, Muscarinic acetylcholine receptor M2 (Homo sapiens, UniProt P08172); type: cell membranes, CHO-K1, Membrane; settings: cho-k1; further: in other assays of this panel Not Active means under 50% inhibition at 10 µM
T2 sequence (P08172 whole entry): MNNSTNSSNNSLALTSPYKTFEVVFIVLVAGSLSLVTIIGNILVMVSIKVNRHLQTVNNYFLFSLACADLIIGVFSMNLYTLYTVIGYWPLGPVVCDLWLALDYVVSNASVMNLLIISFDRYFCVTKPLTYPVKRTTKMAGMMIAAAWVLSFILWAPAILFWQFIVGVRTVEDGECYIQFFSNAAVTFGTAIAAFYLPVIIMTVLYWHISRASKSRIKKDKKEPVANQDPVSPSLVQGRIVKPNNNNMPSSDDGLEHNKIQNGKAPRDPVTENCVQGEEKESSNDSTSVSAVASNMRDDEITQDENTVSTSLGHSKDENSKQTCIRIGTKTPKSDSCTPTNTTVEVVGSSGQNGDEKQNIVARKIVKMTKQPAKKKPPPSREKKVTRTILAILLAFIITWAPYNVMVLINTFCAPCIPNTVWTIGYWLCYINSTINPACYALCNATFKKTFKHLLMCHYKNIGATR

[5] = target: Melanocortin receptor 5 (Homo sapiens, UniProt P33032); type: cell membranes, HEK293, Membrane; further: in other assays of this panel Not Active means under 50% inhibition at 10 µM
Chain of Melanocortin receptor 5 (P33032 whole entry): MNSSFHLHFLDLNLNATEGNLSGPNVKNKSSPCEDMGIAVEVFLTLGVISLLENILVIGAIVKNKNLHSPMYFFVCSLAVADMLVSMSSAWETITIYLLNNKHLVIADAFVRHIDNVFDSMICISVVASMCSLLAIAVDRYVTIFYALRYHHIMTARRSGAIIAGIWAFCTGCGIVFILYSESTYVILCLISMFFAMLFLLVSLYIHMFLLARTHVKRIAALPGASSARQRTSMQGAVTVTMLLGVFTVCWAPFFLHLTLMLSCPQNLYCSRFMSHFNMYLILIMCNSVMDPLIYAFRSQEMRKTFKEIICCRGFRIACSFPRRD

[6] = target: 5-hydroxytryptamine receptor 2B (Homo sapiens, UniProt P41595); type: cell membranes, CHO-K1, Membrane; further: in other assays of this panel Not Active means under 50% inhibition at 10 µM
Chain of 5-hydroxytryptamine receptor 2B (P41595 whole entry): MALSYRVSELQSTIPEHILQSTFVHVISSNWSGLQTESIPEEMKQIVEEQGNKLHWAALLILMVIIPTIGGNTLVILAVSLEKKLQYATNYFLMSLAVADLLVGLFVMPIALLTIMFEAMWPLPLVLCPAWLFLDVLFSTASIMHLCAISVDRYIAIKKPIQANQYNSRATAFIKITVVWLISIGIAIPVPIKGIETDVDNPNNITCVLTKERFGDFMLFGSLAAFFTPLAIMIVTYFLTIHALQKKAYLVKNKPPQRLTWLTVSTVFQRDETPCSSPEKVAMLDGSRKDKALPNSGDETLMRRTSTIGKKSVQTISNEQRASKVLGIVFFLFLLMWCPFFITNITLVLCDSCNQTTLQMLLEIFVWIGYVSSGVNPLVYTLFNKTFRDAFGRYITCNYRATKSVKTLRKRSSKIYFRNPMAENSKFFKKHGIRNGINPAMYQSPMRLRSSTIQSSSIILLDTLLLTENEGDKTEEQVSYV

[7] = target: Cytochrome P450 2D6 (Homo sapiens, UniProt P10635); settings: bti-tn-5b1-4; further: in other assays of this panel Not Active means under 50% inhibition at 10 µM
Chain of Cytochrome P450 2D6 (P10635 whole entry): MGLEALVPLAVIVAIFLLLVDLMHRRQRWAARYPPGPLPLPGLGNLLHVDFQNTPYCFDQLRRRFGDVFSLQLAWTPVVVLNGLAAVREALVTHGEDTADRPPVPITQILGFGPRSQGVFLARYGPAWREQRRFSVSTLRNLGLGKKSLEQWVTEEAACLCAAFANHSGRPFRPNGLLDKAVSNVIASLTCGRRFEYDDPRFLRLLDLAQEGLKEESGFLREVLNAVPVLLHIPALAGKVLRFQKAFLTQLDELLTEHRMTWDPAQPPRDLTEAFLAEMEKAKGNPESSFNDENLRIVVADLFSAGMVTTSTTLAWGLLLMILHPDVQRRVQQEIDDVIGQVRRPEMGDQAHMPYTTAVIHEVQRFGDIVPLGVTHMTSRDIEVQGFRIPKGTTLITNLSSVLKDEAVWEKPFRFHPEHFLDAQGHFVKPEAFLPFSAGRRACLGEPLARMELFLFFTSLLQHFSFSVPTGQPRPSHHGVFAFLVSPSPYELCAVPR

COc1cc(N)nc2[nH]c(-c3ccc(F)cc3)c(-c3ccncc3)c12
Not Active: IC50 [1] | IC50 ([2]; hek293) | IC50 [3] | Ki [3] | IC50 [4] | IC50 ([5]; hek293) | IC50 ([6]; cho-k1)

CNS(=O)(=O)Cc1ccc2[nH]cc(CCN(C)C)c2c1
Not Active: IC50 [1] | IC50 ([2]; hek293) | IC50 [3] | Ki [3] | IC50 [4] | IC50 ([5]; hek293) | IC50 ([6]; cho-k1) | IC50 [7] | Ki [7]

CCCc1nn(C)c2c(=O)[nH]c(-c3cc(S(=O)(=O)N4CCN(C)CC4)ccc3OCC)nc12
Not Active: IC50 [1] | IC50 ([2]; hek293) | IC50 [3] | Ki [3] | IC50 [4] | IC50 ([5]; hek293) | IC50 ([6]; cho-k1) | IC50 [7] | Ki [7]

COc1ccc(/C=C/C(=O)Nc2ccccc2C(=O)O)cc1OC
Not Active: IC50 [1] | IC50 ([2]; hek293) | IC50 [3] | Ki [3] | IC50 [4] | IC50 ([5]; hek293) | IC50 ([6]; cho-k1) | IC50 [7] | Ki [7]

CCOC(N)=O
Not Active: IC50 [1] | IC50 ([2]; hek293) | IC50 [3] | Ki [3] | IC50 [4] | IC50 ([5]; hek293) | IC50 ([6]; cho-k1) | IC50 [7] | Ki [7]

CC(=O)Nc1nnc(S(N)(=O)=O)s1 [ACETAZOLAMIDE]
Not Active: IC50 [1] | IC50 ([2]; hek293) | IC50 [4] | IC50 ([5]; hek293) | IC50 ([6]; cho-k1) | IC50 [7] | Ki [7]

O=c1[nH]c2ccccc2n1CCCN1CCC(n2c(=O)[nH]c3cc(Cl)ccc32)CC1 [DOMPERIDONE]
Not Active: IC50 [1] | IC50 ([2]; hek293) | IC50 [4] | IC50 ([5]; hek293)

CC1=C(CC(=O)O)c2cc(F)ccc2/C1=C\c1ccc(S(C)(=O)=O)cc1 [EXISULIND]
Not Active: IC50 [1] | IC50 ([2]; hek293) | IC50 [3] | Ki [3] | IC50 [4] | IC50 ([5]; hek293) | IC50 ([6]; cho-k1) | IC50 [7] | Ki [7]

CC(C)OC(=O)C(C)(C)Oc1ccc(C(=O)c2ccc(Cl)cc2)cc1 [FENOFIBRATE]
15.6 µM: IC50 ([2]; read-out: IC50)
Not Active: IC50 [1] | IC50 [4] | IC50 ([5]; hek293) | IC50 ([6]; cho-k1)

OCCN1CCN(CCCN2c3ccccc3Sc3ccc(C(F)(F)F)cc32)CC1 [FLUPHENAZINE]
0.039 µM: IC50 ([6]; read-out: IC50)
Not Active: IC50 [1] | IC50 ([2]; hek293)
8.93 µM: Ki ([5]; read-out: Ki)
0.025 µM: Ki ([6]; read-out: Ki)
9.52 µM: IC50 ([5]; read-out: IC50)

CN1C2CCCC1CC(NC(=O)c1nn(C)c3ccccc13)C2 (stereo not drawn) [GRANISETRON]
Not Active: IC50 [1] | IC50 ([2]; hek293) | IC50 [4] | IC50 ([5]; hek293) | IC50 ([6]; cho-k1)

Nc1nc2c(c(=O)[nH]1)N(C=O)C(CNc1ccc(C(=O)N[C@@H](CCC(=O)O)C(=O)O)cc1)CN2 (stereo partly drawn) [LEUCOVORIN]
Not Active: IC50 [1] | IC50 ([2]; hek293) | IC50 [3] | Ki [3] | IC50 [4] | IC50 ([5]; hek293) | IC50 ([6]; cho-k1) | IC50 [7] | Ki [7]

C[C@@H](O)[C@H]1C(=O)N2C(C(=O)O)=C(S[C@@H]3CN[C@H](C(=O)N(C)C)C3)[C@H](C)[C@H]12 [MEROPENEM]
Not Active: IC50 [1] | IC50 ([2]; hek293) | IC50 [3] | Ki [3] | IC50 [4] | IC50 ([5]; hek293) | IC50 ([6]; cho-k1) | IC50 [7] | Ki [7]

CC[C@@H](CO)NC(=O)[C@@H]1C=C2c3cccc4c3c(cn4C)C[C@H]2N(C)C1 [METHYSERGIDE]
Not Active: IC50 [1] | IC50 ([2]; hek293) | IC50 [4] | IC50 ([5]; hek293) | IC50 [7] | Ki [7]

CCN(CC)CC#CCOC(=O)C(O)(c1ccccc1)C1CCCCC1 (stereo not drawn) [OXYBUTYNIN]
Not Active: IC50 [1] | IC50 ([2]; hek293) | IC50 ([5]; hek293) | IC50 [7] | Ki [7]
